The values below are quoted from earlier work in article PMC5979345, “Identification of an ACE-Inhibitory Peptide from Walnut Protein and Its Evaluation of the Inhibitory Mechanism” (International Journal of Molecular Sciences, 2018).

Data set [1] concerns ACE. The note with it: from walnut protein digested by neutral proteinase As1.398, 45 °C, 5 h, pH 7.0. As for the experimental part:
In the present study, the peptide EPNGLLLPQY was identified from the hydrolysate of walnut protein digested by […]. Moreover, there were several reports related to the peptides from walnut protein hydrolysates with ACE-inhibitory activity.

Data set [2] concerns ACE. To be noted: identified from Stichopus horrens. As for the experimental part:
To further evaluate the active mechanism of the novel ACEI peptide, the inhibition pattern of the peptide, EPNGLLLPQY, against ACE was investigated by the Line weaver-Burk plot analysis method. […] When the EPNGLLLPQY was added to the r ...

For LPGRPPIKPWPL, the “ACE-inhibitory activity (in words)” value in data set [1] was “ACE-inhibitory peptides”.
Take WPERPPQIP: the “ACE-inhibitory activity (in words)” value in data set [1] is “ACE-inhibitory peptides”.
In the case of “VSRHFASYAN [food-derived peptide identified from Stichopus horrens]”, in data set [2], the Inhibition pattern result is “mixed-type of inhibition”.
Consider “EVSQGRP [food-derived peptide identified from Stichopus horrens]”, for which, in data set [2], the Inhibition pattern entry is recorded as “mixed-type of inhibition”.
For “SAAVGSP [food-derived peptide identified from Stichopus horrens]”, the Inhibition pattern entry in data set [2] was “mixed-type of inhibition”.
